Test results from patent publication US11957766B2, “HNQO1-activatable fluorescent probe for imaging cancer cells in-vitro and in-vivo” (Texas Tech University System, priority 2019, dated 2024).

What was measured:
A549 and H460 cells = assay: Flow cytometry of NIR-ASM in NQO1-positive cancer cell lines; assay type: cell-based, human; conditions: 60 min, about 1×10^4 cells
Procedure: (§1) Detection of NQO1 in live cells. Inspired by the excellent biocompatibility, the inventors investigated its performance in both NQO1 expressing cancer cells (A549, H460) and NQO1 non-expressing normal cells (IMR90, HUVEC). All cells were incubated with NIR-ASM (10 μM) for 60 min, washed with PBS and were imaged under a confocal microscope after counterstaining the nuclei with Hoechst 33342 (FIG. 12A). […] The higher expression of NQO1 protein in A549 and H460 cells and its absence in normal cells, IMR90 and HUVEC as found with western blot analysis correlated with the probe reactivity in cells (FIG. 12B). […] Cell sorting using flow cytometry is a well-established technology in clinical diagnostics and biomedical research. To assess the applicability of the NIR-ASM to rapidly detect and quantify in both cancer and normal cells based on NQO1 expression, the probe was incubated with cell suspensions for 60 min, and about 1×10^4 cells were analyzed on a flow cytometer.
(§2) Flow cytometry analysis. The endogenous NQO1 activity of cancer cells and normal cells was determined by flow cytometry after NIR-ASM exposure. Cells were incubated with 10 μM of NIR-ASM for 60 min, harvested by trypsinization and washed with PBS. For inhibitor study, cells were pretreated with NQO1 inhibitor ES936 (100 nM) for 6 h before adding the NIR-ASM. About 1×10^4 cells were analyzed by flow cytometry (λex=488 nm).

[1] = system: NQO1-negative MDA-MB-231 cells; assay: NIR-ASM in NQO1-negative control MDA-MB-231 cells; assay type: cell-based, human; conditions: microscopy and flow cytometry
Procedure: Chemical and genetic approaches confirm the specificity of NIR-ASM for NQO1 in live tumor cells. A fluorescence probe with high sensitivity, simple operation, and excellent specificity will be an asset for the detection of NQO1 in situ. To assess the substrate selectivity of NIR-ASM for NQO1, both A549 and H460 cells were pretreated with 100 nM of NQO1 inhibitor ES936 for 6 h, before incubating with 10 μM NIR-ASM. […] The effect of ES936 on endogenous NQO1 activity and subsequent reactivity with NIR-ASM was also determined by flow cytometry. […] The presence of NQO1 protein in the transfected MDA-MB-231 cells and its absence in the untransfected control was confirmed by immunoblotting (FIG. 13E). Subsequently, the NQO1-negative and positive MDA-MB-231 cell lines were incubated with NIR-ASM and analyzed by fluorescence microscopy and flow cytometry for activation of the probe.
Fluorescence imaging. Both cancer and normal cells were seeded into 6-well plates and cultured overnight in respective media at 37° C. […] Finally, the medium was replaced with PBS and the live cells were imaged using a multiphoton confocal fluorescence microscope (λex/em=488/644 nm). […]
Flow cytometry analysis. The endogenous NQO1 activity of cancer cells and normal cells was determined by flow cytometry after NIR-ASM exposure. […] About 1×10^4 cells were analyzed by flow cytometry (λex=488 nm).

IMR90 and HUVECs = assay: Flow cytometry of NIR-ASM in NQO1-negative normal cell lines; assay type: cell-based, human
Procedure: as §1, §2

[2] = system: brain tumor (DAOY, T98G, and U87MG) and normal (astrocytes) cells; assay: Cytotoxicity of NQ-DCP, resazurin reduction assay; assay type: cell-based, human; conditions: 100 μM, 72 h incubation
Procedure: (§3) Visualization of Cancer Cells by Fluorescence Imaging of hNQO1. […] The cytotoxicity of NQ-DCP was initially evaluated in cultured brain tumor (DAOY, T98G, and U87MG) and normal (astrocytes) cells to assess its biocompatibility using the resazurin reduction assay. […] Cells were incubated with NQ-DCP (10 μM) for 60 min, washed with PBS and were imaged under a fluorescence microscope.

[3] = system: DAOY, T98G, and U87MG cells; assay: Fluorescence microscopy of NQ-DCP in hNQO1 positive cancer cells; assay type: cell-based, human
Procedure: as §3
(§4) Cell Culture, Fluorescence Imaging, and Flow Cytometry Analysis. Brain tumor cells and astrocytes were grown in Dulbecco's modified Eagle's (DMEM) medium containing 10% Fetal Bovine Serum and 1% penicillin/streptomycin in a humidified atmosphere of 5% CO2 at 37° C. For fluorescence imaging, initially, cells were seeded into 6-well plate and cultured overnight in respective media at 37° C. Media was replaced with fresh medium containing 10 μM NQ-DCP and incubated at 37° C. for 60 min and then the medium was replaced with PBS and live cells were imaged using a fluorescence microscope. For inhibitor study, cells were pretreated with NQO1 inhibitor ES936 (100 nM) for 6 h before adding the NQ-DCP. For determining endogenous hNQO1 activity in cancer cells using flow cytometry, about 10×10^4 cells were incubated with 10 μM of NQ-DCP for 60 min and were analyzed using flow cytometry.

NQO1 = NQO1 (Homo sapiens, UniProt P15559); assay: Selectivity of NQ-DCP towards hNQO1 over other biomolecules/enzymes; assay type: biochemical; conditions: 10 μM probe, 30 min; GSH, ALDH1A1, GGT, GPx, APE1, CBS, CTSL, GST-pi, NTR, NADH
Procedure: Selectivity of NQ-DCP Towards hNQO1. The specificity of NQ-DCP probe towards hNQO1 was studied by determining its reactivity towards various biomolecules such as the glutathione (GSH, 1 mM), aldehyde dehydrogenase 1 (ALDH1A1, 2.5 μg/mL), gamma-glutamyl transferase (GGT, 10 U), glutathione Peroxidase (GPx, 10 U), apurinic/apyrimidinic endonuclease (APE1, 10 U), cystathionine-β-synthase (CBS, 2 μg/mL), cathepsin L (CTSL, 2 μg/mL), glutathione S-transferase (GST-pi, 2 μg/mL), nitroreductase (NTR, 2 μg/mL) and NADH (100 μM) alone or the combination of and NQO1 (2.5 μg/mL). […] To gain more insight into the specificity of the probe towards hNQO1, the enzyme was pre-treated with ES936 (0-100 nM), a well-known hNQO1 inhibitor [39] and then incubated with NQ-DCP.
Selectivity Evaluation. To study the interference, NQ-DCP was incubated with various biologically relevant analytes such as thiols and other enzymes for 30 min with or without the addition of 100 μM NADH. Fluorescence spectra were analyzed to determine NQ-DCP specificity against hNQO1.

DAOY and T98G cells = assay: Flow cytometry of NQ-DCP activation; assay type: cell-based, human; conditions: 10 μM, λem=586/40, about 1×10^4 cells
Procedure: Applicability of NQ-DCP for Flow Cytometry. Flow cytometry assays were used to assess the applicability of the NQ-DCP probe to rapidly detect and quantify tumor cells containing hNQO1. The probe was incubated with cell suspensions (DAOY and T98G) for 30 min and a flowcytometry was used to measure the fluorescence (λem=586/40) in about 1×10^4 individual cells.
as §4

Sequence of NQO1 (P15559 whole entry): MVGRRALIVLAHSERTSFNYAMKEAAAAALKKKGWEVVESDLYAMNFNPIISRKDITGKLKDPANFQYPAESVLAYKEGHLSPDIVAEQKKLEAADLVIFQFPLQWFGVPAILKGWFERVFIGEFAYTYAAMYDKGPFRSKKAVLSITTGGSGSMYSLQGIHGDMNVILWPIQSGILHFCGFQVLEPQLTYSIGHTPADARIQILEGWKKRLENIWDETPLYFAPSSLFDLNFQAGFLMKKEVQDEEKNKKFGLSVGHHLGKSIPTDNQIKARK

| cell permeability ([3]; inferred from intracellular activation) | selectivity for hNQO1 over the other enzymes/substrates tested (NQO1) | SMILES | flow cytometry fluorescence signal, NQO1-positive cells (A549 and H460 cells) | fluorescence in control (NQO1-negative) cells [1] | flow cytometry fluorescence signal, negative normal cells (IMR90 and HUVECs; 60 min, about 1×10^4 cells) | intracellular stability (IMR90 and HUVECs; sustained low fluorescence in normal cells) | cytotoxicity [2] | fluorescence signal in cancer cells ([3]; 10 μM, 60 min) | flow cytometry fluorescence signal (DAOY and T98G cells) |
| --- | --- | --- | --- | --- | --- | --- | --- | --- | --- |
| – | – | CC1=C(C)C(=O)C(C(C)(C)CC(=O)Nc2ccc(/C=C/C3=CC(=C(C#N)C#N)CC(C)(C)C3)cc2)=C(C)C1=O [NIR-ASM, (E)-N-(4-(2-(3-(dicyanomethylene)-5,5-dimethylcyclohex-1-en-1-yl)vinyl)phenyl)-3-methyl-3-(2,4,5-trimethyl-3,6-dioxocyclohexa-1,4-dien-1-yl)butanamide] | high-intensity unimodal distribution of signals | No fluorescence | minimal fluorescence | intracellular stability of NIR-ASM without any non-specific activation | – | – | – |
| good cell permeability | high selectivity | CC1=C(C)C(=O)C(C(C)(C)CC(=O)Oc2ccc(/C=C/C3=CC(=C(C#N)C#N)CC(C)(C)C3)cc2)=C(C)C1=O [NQ-DCP] | – | – | – | – | nontoxic | bright fluorescence signals | high-intensity unimodal distribution of signal |
